Several values for one entry are separate records, joined by “and”; a condition that tells them apart may be missing. Equal entries are not always repeated.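 Test compounds were applied to cells in 96-well plates for 48 hours at 5 doses. The concentration for full growth arrest is given as TGI.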

What all share (test): NCI tumour cell line growth inhibition, 48 h
For test [1], the system named is SNB-78 CNS.
The subject of test [2] is LXFL 529 NSCLC.
In test [3] the test system is RXF-631 renal.
In test [4] the test system is DLD-1 colon.
Test [5] concerns XF 498 CNS.
The subject of test [6] is DMS 114 small cell lung.
In test [7] the test system is HS 578T breast.
Test [8] concerns MDA-N.
The test system of test [9] is MDA-MB-435.
Test [10] deals with SN12K1 renal.
The test system of test [11] is P388/ADR leukemia.
Test [12] has as its system P388 leukemia.

On to `O=C1C=C(Nc2ccc(S(=O)(=O)Nc3ncccn3)cc2)c2ccccc2C1=O`, for which the TGI in test [1] is > 100 µM; in test [2], 56.6 µM; in test [3], 47.3 µM; in test [4] it was 43.5 µM.

Consider `C/C(CC(=O)Nc1ccc(NC(=O)C/C(C)=N\NC(N)=O)cc1)=N/NC(N)=O`, for which the TGI in [1] is > 100 µM; in [2] it was > 100 µM; in test [5] it was > 100 µM; in test [3], > 100 µM; in test [6], > 53.3 µM; in test [4], > 66.6 µM.

In the case of `CNCCCNc1c2ccccc2nc2cccc([N+](=O)[O-])c12`, the TGI is 0.00826 µM in test [7]; 0.0124 µM and 0.0131 µM in test [1]; 0.00309 µM in test [8]; 0.0288 µM in test [2]; 0.00724 µM in test [5]; 0.0108 µM in [6]. The TGI was found to be 0.00324 µM in test [9] and 0.0264 µM in [4].

Consider `COc1cc(C2c3cc4c(cc3[C@@H](N(C)c3ccc(N(C)C)cc3)C3COC(=O)C23)OCO4)cc(OC)c1O` (stereo partly drawn), for which the TGI in test [2] was found to be 12.3 µM; in test [3], 40.7 µM; in test [6], 2.24 µM; in test [4], 37.5 µM.

`CCN(CC)c1ccc(N=Nc2ccc(-c3nc4cccn(C)c-4n3)cc2)cc1`: the TGI was 77.2 µM in test [1]; 15.8 µM in [2]; 28.1 µM in test [5]; 33.7 µM in test [3]; 13 µM in test [6]; 36.1 µM in test [4].

Turning to `COC(=O)CC(C(C(C)=O)C(=O)OCc1ccccc1)N1C(=O)OC(c2ccccc2)C1c1ccccc1` (stereo not drawn), the TGI in [2], in [5], in test [3], in test [6] and in [4] was > 100 µM throughout.

On to `C1CC2=C(C1)C1=S(S2)SC2=C1CCC2`, for which the TGI in test [1], in test [2], in [3], in test [6] and in test [4] was > 100 µM throughout.

Consider `CC1=C(C(=O)Nc2ccccc2)C(c2cc(Cl)cc(Cl)c2)C(C(=O)Nc2ccccc2)=C(C)N1`, for which the TGI in test [1] was > 100 µM; in [2], 17.9 µM; in test [5] it was 27.5 µM; in test [3] it was 63.5 µM; in test [6], 18.1 µM; in test [4], 20.2 µM.

For `C/C(O)=C(\N=O)C(=O)NCc1ccccc1`, the TGI in test [1], in test [2], in test [3], in [6] and in test [4] was > 100 µM in each case.

With `COc1ccc2c(c1)[n+](=O)c(C(=O)CC(=O)C(=O)Nc1cccc(C)c1C)c(C)n2[O-]`, the TGI in test [1], in test [2], in test [5], in test [3], in test [6] and in [4] was > 100 µM in each case.

Regarding `COc1ccc2c(c1)CCc1c(CO)c(COC(=O)NC(C)C)n(C)c1-2`, the TGI in [10] was 17.2 µM; in test [1] it was 39.5 µM; in test [11], 6.22 µM; in test [2] it was 15.9 µM; in test [12] it was 3.54 µM; in test [5] it was > 62.6 µM. Further, the results for the TGI in test [3], in [6] and in [4] were > 100 µM, 12.3 µM and 15.8 µM, respectively.

`Cc1ccccc1N=Nc1c(-c2ccccc2)nn(C(=O)CC(=O)Nc2cccc(Cl)c2)c1-c1ccccc1`: the TGI in test [1] is > 31.6 µM; in test [2], > 31.6 µM; in test [5], 74.6 µM; in [6], 22.1 µM; in [4], > 31.6 µM.

For `O=C(N/C(=C/c1cccc([N+](=O)[O-])c1)c1nc2ccc(Cl)cc2[nH]1)c1ccccc1`, the TGI in test [1] is > 100 µM; in test [2] it was > 100 µM; in test [3] it was 27 µM; in test [6], 62.1 µM.

Take `COC(=O)CC(=O)NCC1=CCC(=O)CC1`: the TGI in [1], in test [2], in test [5], in test [6] and in test [4] was > 100 µM each time.

Regarding `NC(=S)N/N=C1/CN(c2ccc(Cl)c(Cl)c2)CC(=O)C1c1nc2ccccc2s1` (stereo not drawn), the TGI in test [1], in test [2], in [5], in test [6] and in test [4] was > 100 µM throughout.

Regarding `CCOc1ccc(N=Cc2ccnc3ccccc23)cc1`, the TGI was > 100 µM in [7]; > 95.7 µM in test [1]; > 100 µM in test [8]; 47.4 µM in [2]; > 100 µM in test [5]; > 61.8 µM in [6]. Further, the TGI in test [9] and in [4] was > 100 µM throughout.

On to `CC(C)=C1CCC(CN2CCOCC2)C1=O` (stereo not drawn), for which the TGI is > 100 µM in test [7]; 30.3 µM in test [1]; 35.1 µM in test [8]; 6.25 µM in test [2]; 26.4 µM in test [5]; > 31 µM in test [3]. Moreover, the TGI in [6] turned out to be 25 µM; in test [9], 29.4 µM; in [4], 10.8 µM.

In the case of `O=c1[nH]c(=O)n(C2CC(O)C(CO)O2)cc1COCC(F)(F)F` (stereo not drawn), the TGI in test [1], in test [2], in test [5], in test [3], in test [6] and in test [4] was > 100 µM throughout.

On to `COc1cccc2nc3c(C(=O)NCCN(C)C)cccc3nc12`, for which the TGI in [1] was 69.8 µM; in test [2], 42.4 µM; in [5] it was 29.1 µM; in [3] it was > 67.2 µM; in test [6], 21 µM; in [4], > 83.6 µM.

Consider `COc1cc2c(c(OC)c1OC)-c1ccc(SC)c(=O)cc1C(CC(=O)Oc1cccc(F)c1)C2` (stereo not drawn), for which the TGI in test [1] was > 100 µM; in test [2], > 40.8 µM; in test [5], 36.8 µM; in [3], 20.7 µM; in test [6] it was 1.07 µM; in test [4] it was > 100 µM.

Consider `COC(=O)N/N=C(\C)C(CN(C)C)C(c1ccccc1)c1c(O)c2ccccc2oc1=O` (stereo not drawn), for which the TGI in test [1], in test [2], in test [5], in test [6] and in test [4] was > 100 µM in each case.

As for `CN(C)CCCCCNc1c2ccccc2nc2cccc([N+](=O)[O-])c12`, the TGI was 0.0059 µM in test [7]; 0.0467 µM in test [1]; 0.000409 µM in [8]; 0.085 µM in test [2]; 0.0085 µM in test [5]; 0.0118 µM in test [6]. Besides, the values for the TGI in [9] and in test [4] were 0.000488 µM and 0.031 µM, respectively.

As to `Cc1cc2c(cc1CO)N1Cc3cc(C)c(CO)cc3N(C2)C1`, the TGI in [1], in test [2], in [5], in [6] and in [4] was > 100 µM in each case.

`CC(=O)NC1=C(N)C(=O)c2ccccc2C1=O`: the TGI was > 100 µM in [1]; > 100 µM in [2]; > 100 µM in test [5]; > 100 µM in [3]; 28.1 µM in test [6]; > 100 µM in [4].

In the case of `CCC(C)(O)c1cn(-c2ccc(S(=O)(=O)O)cc2)nn1` (stereo not drawn), the TGI in test [1], in test [2], in [5], in test [3], in test [6] and in test [4] was > 100 µM in each case.

In the case of `CCn1c(CSc2nc(-c3ccccc3)c(-c3ccccc3)[nH]2)n[nH]c1=S`, the TGI in [1], in test [2], in test [5], in test [6] and in test [4] was > 100 µM in each case.

Regarding `Cc1ccc(C2C(Cl)C(=O)N2NC(=O)c2ccc(N)cc2)cc1` (stereo not drawn), the TGI was determined as 46.2 µM in [1]; 29.3 µM in test [2]; 26.5 µM in test [5]; 23.3 µM in test [6]; 40.2 µM in test [4].
